From patent US8211945B2, “Carba-sugar amine derivative and glycolipid metabolic disorder treating agent containing the same as active ingredient” (Seikagaku Corporation, priority 2001, dated 2012)
Substitutions are numbered along the chain they refer to.

Key:
Test in all cases: Mutant β-galactosidase activity in model cells, 4 days culture
Assay type in all cases: cell-based
[1] = biological target: T1, human mutant β-galactosidase R482H (Homo sapiens, UniProt P16278, R482H)
T1 construct: expressed in transfected cells; host or cells: SV40-immortalized skin fibroblasts of a β-galactosidase-deficient knockout mouse
T1 sequence (P16278 29-677 R482H): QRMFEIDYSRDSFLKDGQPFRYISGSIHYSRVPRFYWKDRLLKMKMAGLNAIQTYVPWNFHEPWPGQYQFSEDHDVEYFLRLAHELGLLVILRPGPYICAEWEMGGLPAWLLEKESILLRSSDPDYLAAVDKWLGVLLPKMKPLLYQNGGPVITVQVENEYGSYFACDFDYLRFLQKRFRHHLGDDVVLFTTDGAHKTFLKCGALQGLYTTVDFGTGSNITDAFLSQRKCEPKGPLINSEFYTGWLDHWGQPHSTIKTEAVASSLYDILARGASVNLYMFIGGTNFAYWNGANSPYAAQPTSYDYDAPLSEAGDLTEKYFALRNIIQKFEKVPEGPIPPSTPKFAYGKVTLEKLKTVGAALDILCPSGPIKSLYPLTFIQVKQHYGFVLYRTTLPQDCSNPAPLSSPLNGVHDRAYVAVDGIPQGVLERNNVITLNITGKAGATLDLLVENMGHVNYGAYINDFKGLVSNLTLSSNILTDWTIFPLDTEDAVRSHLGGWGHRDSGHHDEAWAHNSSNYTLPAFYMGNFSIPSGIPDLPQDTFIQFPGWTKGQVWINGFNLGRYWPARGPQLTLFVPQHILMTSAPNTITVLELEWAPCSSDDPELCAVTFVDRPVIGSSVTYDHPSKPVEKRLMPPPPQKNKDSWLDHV
Text: (§1) Cultured skin fibroblasts of a β-galactosidase-deficient knockout mouse was immortalized by introducing an SV40 viral gene, and enzyme genes integrated into pSV2neo and an expression vector were also introduced simultaneously, thereby establishing a model cell (Brain Dev., 23(5), 284-287, 2001). The genes used are human normal (GP8) and mutant β-galactosidase gene Y316C, G123R (infantile GM1-gangliosidosis), R201C (juvenile GM1-gangliosidosis), 151T, T82M, R201H, R263S, R457Q (adult GM1-gangliosidosis), W273L, Y83H, R482H and R482C (Morquio-B disease) (Hum. Genet., 93(2), 109-114, 1994).
(§2) As a control substance, 0.5 mM N-(n-butyl)-deoxygalactonojirimycin (NB-DGJ: The Journal of Biological Chemistry, 269, 27108-27114 (1994)) was used, and the substance 18 of the present invention was used in an amount of 0.2 μM.
(§3) Specifically, after culturing the model cell for 4 days using a cell culture medium (10% FCS DMEM) containing the substance 18 of the present invention, the resulting cells were recovered and diluted such that the amount of protein in the suspension became a predetermined level, and then enzyme activity in the diluted suspension was measured. Using 4-methylumbelliferyl-β-D-galactopyranoside as the fluorescent substrate, the enzyme activity during 30 minutes was measured at 37° C.

[2] = biological target: T2, human mutant β-galactosidase P263S (Homo sapiens, UniProt P16278, P263S)
T2 construct: expressed in transfected cells; host or cells: SV40-immortalized skin fibroblasts of a β-galactosidase-deficient knockout mouse
T2 sequence (P16278 29-677 P263S): T1 sequence (P16278 29-677 R482H) with P235S, H454R
Text: as §1, §2, §3

[3] = biological target: T3, human mutant β-galactosidase T82M (Homo sapiens, UniProt P16278, T82M)
T3 construct: expressed in transfected cells; host or cells: SV40-immortalized skin fibroblasts of a β-galactosidase-deficient knockout mouse
T3 sequence (P16278 29-677 T82M): T1 sequence (P16278 29-677 R482H) with T54M, H454R
Text: as §1, §2, §3

Structure (SMILES)	enzyme activity, Control ([1]; transferred gene R482H, control substance 0.5 mM NB-DGJ)	enzyme activity, Control ([2]; transferred gene P263S, control substance 0.5 mM NB-DGJ)	enzyme activity, Control ([3]; transferred gene T82M, control substance 0.5 mM NB-DGJ)	Relative ratio (×100%) ([1]; R482H, substance 18 vs control)	enzyme activity ([1]; transferred gene R482H, 0.2 μM, 4 days)	Relative ratio (×100%) ([2]; P263S, substance 18 vs control)	enzyme activity ([2]; transferred gene P263S, 0.2 μM, 4 days)	Relative ratio (×100%) ([3]; T82M, substance 18 vs control)	enzyme activity ([3]; transferred gene T82M, 0.2 μM, 4 days)
CCCCN1C[C@H](O)[C@@H](O)[C@@H](O)[C@H]1CO [Control, N-(n-butyl)-deoxygalactonojirimycin, reference compound]	0.50	0.02	0.67						
CCCCCCCCN[C@@H]1C=C(CO)[C@H](O)C(O)[C@@H]1O (stereo partly drawn) [Substance 18, N-octyl-5a-carba-α-L-arabino-hexo-5(5a)-enopyranosylamine]				2.50 ×100%	1.24	6.58 ×100%	0.12	0.88 ×100%	0.59
